From patent US7344706B2, “UV absorber compositions comprising a hydroxyphenyltriazine compound” (Ciba Specialty Chemicals Corp., priority 2002, dated 2008)

Tests used:
[1] = Solubility in cosmetic oils; assay type: physicochemical; settings: percentages refer to weight
[2] = Spectral properties (UV absorption); assay type: physicochemical
Description: Spectral Properties: [table]

solubility in di-C12-C13alkylmalates ([1]; solvent di-C12-C13alkylmalates): > 25%
solubility in glyceryl-trioctanoate ([1]; solvent glyceryl-trioctanoate): > 30%
ε [2]: 50443 liters/(mol/cm)
λmax [2]: 322 nm
E [1%, 1 cm] (in dioxane) ([2]; in dioxane): 681.62
SMILES: CCCCC(CC)COc1ccc(-c2nc(-c3ccc(OC)cc3)nc(-c3ccc(OCC(CC)CCCC)cc3OCC(CC)CCCC)n2)c(O)c1 (centres unmarked) [Example 1, 2-((2,4-(2-ethyl-hexyloxy)-phenyl))-4-((2-hydroxy-4-(2-ethyl-hexyloxy)-phenyl))-6-(4-methoxyphenyl)-(1,3,5)-triazine]
